From PubChem BioAssay (NCI) come the findings set out here.

Common to all, as to experiment: growth of human tumour cells (NCI), 48 h
Test [1] deals with HOP-92 NSCLC.
The test system of test [2] is T-47D breast.
For test [3], the system named is CCRF-CEM leukemia.
Test [4] deals with TK-10 renal.
The test system of test [5] is SK-OV-3 ovarian.
For test [6], the system named is UO-31 renal.
Test [7] has as its system HS 578T breast.
Test [8] deals with EKVX NSCLC.
Test [9] relates to MALME-3M melanoma.
Test [10] concerns SN12C renal.

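Following 48 hours of exposure in 96-well plates, responses at five concentrations were used to interpolate endpoints linearly. GI50 = concentration required for 50% inhibition of growth. The concentration for full growth arrest is given as TGI.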

Consider `NC[C@H]1Nc2ccccc2[C@@H](O)C1O` (stereo partly drawn), for which the TGI in test [1], in test [2], in [3], in test [4], in test [5] and in [6] was above 100 µM each time. The TGI in test [7], in test [8], in test [9] and in [10] was above 100 µM throughout.

For `N#Cc1ccc2c(c1)C(=O)c1c-2n(CCCCl)c(=O)c2cc([N+](=O)[O-])ccc12`, the GI50 in [1] is 5.06 µM; in test [2], 2.65 µM; in test [3], 0.589 µM; in test [4], 42.9 µM; in [5], 5.29 µM; in test [6], 2.61 µM. Further, the GI50 was 41 µM in test [7], 50.4 µM in test [8], 24 µM in test [9] and 5.93 µM in [10]. Besides, the TGI was 23.1 µM in test [1]; above 100 µM in test [2]; 10.7 µM in [3]; above 100 µM in test [4]; 24.7 µM in test [5]; above 100 µM in test [6]. For the same compound, the TGI in test [7], in [8], in [9] and in test [10] was above 100 µM in each case.

As for `Cc1cc(=O)oc2c(C)c(O)ccc12`, the TGI in [1], in test [2], in [3], in test [6], in test [7] and in test [8] was above 100 µM throughout. Besides, the TGI in [9] and in test [10] was above 100 µM throughout.

For the compound `Cc1ccc(NC2=C(Cl)C(=O)N(Cc3ccc(Cl)cc3)C2=O)cc1O`, the GI50 is 10.7 µM in [2]; 4.64 µM in test [3]; 15.2 µM in [4]; 10.9 µM in test [5]; 17.6 µM in [6]; 16.4 µM in test [7]. The GI50 is 5.23 µM in test [9] and 13.3 µM in test [10]. Besides, the TGI worked out at 42.6 µM in [2]; 60 µM in test [3]; 32.4 µM in test [4]; 32.3 µM in [5]; 69 µM in [6]; 75.8 µM in test [7]. The values for the TGI in [9] and in test [10] were 26.9 µM and 30.5 µM, respectively.

`COc1cccc(/C=C/[N+](=O)[O-])c1`: the GI50 in test [1] was 15.9 µM; in test [2] it was 2.51 µM; in [3] it was 2.8 µM; in test [5] it was 11.5 µM; in [6], 1.68 µM; in test [7], 15.8 µM. The GI50 in test [8] is 19 µM; in test [9], 12.1 µM; in test [10], 15.2 µM. The TGI in test [1] came out at 34.6 µM; in [2] it was 9.6 µM; in test [3], 7.32 µM; in [5] it was 23.6 µM; in test [6], 3.4 µM; in [7], 55.5 µM. Moreover, the TGI in test [8] was found to be 76.2 µM; in test [9], 27.8 µM; in test [10], 37.2 µM.

With `CC(=O)N1C/C(=C/c2ccc(Cl)cc2)C(=O)/C(=C/c2ccc(Cl)cc2)C1`, the GI50 in test [1] is 1.52 µM; in test [2], 1.31 µM; in test [3] it was 0.319 µM; in [4], 1.94 µM; in test [5], 1.61 µM; in [6], 0.887 µM. Moreover, the GI50 in test [7] was 1.43 µM; in [9] it was 1.94 µM; in [10], 0.72 µM. Besides, the TGI in test [1] was 4.06 µM; in [2] it was 3.24 µM; in test [3] it was 3.03 µM; in [4], 4.1 µM; in test [5], 3.39 µM; in test [6] it was 2.35 µM. In addition, the values for the TGI in test [7], in [9] and in test [10] were 5.24 µM, 4.14 µM and 2.24 µM, respectively.

Consider `CC(C)C[C@H](NC(=O)Cn1ccc(NCc2ccccc2)cc1=O)B(O)O`, for which the GI50 in test [1] is 2.39 µM; in [2], 0.785 µM; in test [3], 0.511 µM; in test [4], 0.472 µM; in test [5], 13.7 µM; in test [6], 1.21 µM. For the same compound, the values for the GI50 in test [7], in [9] and in [10] were 3.33 µM, 2.22 µM and 3.71 µM, respectively. Further, the TGI was 8.35 µM in [1]; 12.4 µM in test [2]; above 100 µM in test [3]; 5.23 µM in [4]; above 100 µM in [5]; 10.6 µM in test [6]. Moreover, the values for the TGI in test [7], in test [9] and in test [10] were 85.3 µM, above 30 µM and 54.8 µM, respectively.

With `O=S(=O)(NCCCNc1nccc(-c2c(-c3ccc(F)c(O)c3)nc3sccn23)n1)c1ccc(F)cc1`, the GI50 was 1.46 µM in [1]; 2.24 µM in test [2]; 1.58 µM in test [3]; 4.33 µM in [4]; 2.22 µM in [5]; 2.96 µM in [6]. Besides, the GI50 in test [7] is 2.62 µM; in test [8], 3.1 µM; in [9] it was 0.0316 µM. For the same compound, the TGI in test [1] is 6.24 µM; in [2], 6.21 µM; in test [3], 6.07 µM; in test [4], 86.3 µM; in [5] it was 7.01 µM; in test [6], 7.77 µM. Moreover, the TGI in test [7] was 7.07 µM; in test [8] it was 14.9 µM; in test [9], 1.01 µM.

Take `C/C(=N\Nc1cc(C)c2ccccc2n1)c1ccccn1`: the GI50 in [2] was below 0.0208 µM; in [3], below 0.0269 µM; in test [5] it was 0.119 µM; in test [6], below 0.0377 µM; in [7], 1.91 µM; in test [9], 0.155 µM. Also, the GI50 in [10] was 0.0762 µM. For the same compound, the TGI in test [2] came to 2.78 µM; in test [3], 0.571 µM; in [4], 2.76 µM; in test [5] it was 8.38 µM; in [6], 0.903 µM; in test [7], 16.2 µM. Also, the results for the TGI in test [9] and in [10] were 1.49 µM and 7.57 µM, respectively.

For `C=C(NC(=O)C(=C)NC(=O)c1csc(C2=NC3c4csc(n4)C4NC(=O)c5csc(n5)C(C(C)(O)C(C)O)NC(=O)C5CSC(=N5)C(=CC)NC(=O)C(C(C)O)NC(=O)c5csc(n5)C3(CC2)NC(=O)C(C)NC(=O)C(=C)NC(=O)C(C)NC(=O)C(C(C)CC)NC2C=Cc3c(C(C)O)cc(nc3C2O)C(=O)OC4C)n1)C(N)=O` (stereo not drawn), the GI50 in test [2] was 4.41 µM; in test [3], 1.83 µM; in test [4], 65.5 µM; in test [5], 54 µM; in test [6], 11.4 µM; in test [7], above 100 µM. For the same compound, the figures for the GI50 in test [8], in [9] and in [10] were 32.5 µM, 3.14 µM and 19.6 µM, respectively. Besides, the TGI was 80.7 µM in test [2]; 5.24 µM in [3]; above 100 µM in test [4]; above 100 µM in test [5]; above 100 µM in test [6]; above 100 µM in [7]. For the same compound, the TGI in test [8], in [9] and in test [10] was above 100 µM throughout.

For the compound `COc1cc(N2CCC(N3CCN(C)CC3)CC2)ccc1Nc1ncnc(Nc2ccccc2S(=O)(=O)C(C)C)n1`, the GI50 in [1] is 0.467 µM; in test [2] it was 5.18 µM; in test [3], 5.84 µM; in [4], 5.21 µM; in test [5], 5.18 µM; in [6], 2.62 µM. Besides, the GI50 is 4.2 µM in test [7], 3.12 µM in test [9] and 2.89 µM in test [10]. For the same compound, the TGI in test [1] was 2.03 µM; in [2], 39.9 µM; in [3] it was above 42.7 µM; in [4] it was 22 µM; in [5] it was 30.5 µM; in test [6] it was 12.6 µM. In addition, the TGI in test [7] was found to be 54.5 µM; in [9], 20.2 µM; in [10] it was 29.8 µM.

Regarding `c1cc(N2CCCN(c3ccc(C4=NCCCN4)cc3)CC2)ccc1C1=NCCCN1`, the GI50 in test [1] was above 100 µM; in test [2], above 100 µM; in [3], above 100 µM; in test [4], 52.5 µM; in test [6], above 100 µM; in [7], 77.7 µM. Further, the figures for the GI50 in test [8] and in [9] were 40.6 µM and above 100 µM, respectively. Moreover, the TGI in test [1], in [2], in test [3], in test [4], in test [6] and in test [7] was above 100 µM throughout. Besides, the TGI in [8] and in test [9] was above 100 µM throughout.
